Test [1] deals with haloperidol catalepsy model.
Text: The criteria of the evaluation: the change in spontaneous motor activity as the sum of movements of the rats in different groupings of the animals, in the “open field” test.
The subject of test [2] is haloperidol catalepsy model. Particulars: for re-animation of spontaneous motor activity: nasal 2 × 50 μL after haloperidol i.p., dopamine 10^−2M (0.8 mg/kg), H2O2 10^−5M (34 ng/animal).
Test [3] deals with haloperidol catalepsy model. Particulars: earlier demonstration (DE 102 48 601); cited from earlier work.
For test [4], the system named is haloperidol catalepsy model. The source holds these as a separate data set.
Text: The criteria of the evaluation: the change in spontaneous motor activity as the sum of movements of the rats in different groupings of the animals, in the “open field” test. The animal groups: control group: “intact control” (Group I), “haloperidol i.p.” (Group II), “haloperidol i.p.+nasal dopamine” (Group III), and “haloperidol i.p.+nasal L-arginine” in various concentrations (Groups IV and V).
Test [5] relates to sexually mature white rats. The test can be described thus: Experiment 3: duration of phenobarbital sleep after single or fractionated nasal administration with H2O2. Particulars: phenobarbital 90 mg/kg, H2O2 10^−5M. It counts as in vivo. From the text:
Experiment 3: The effect of phenobarbital was investigated experimentally on sexually mature white rats, using a nasal administration. The sleep duration conditioned by phenobarbital following nasal administration of phenobarbital was compared against the presence and absence of vaso-active and neuroactive substance. The typical results of an experiment are listed in Tab. 4.

Where [6] appears, read: with nasal dopamine 10^−3M, haloperidol model.
[7] abbreviates: Experiment 1, haloperidol i.p. 100 mg/kg, without H2O2, nasal dopamine 10^−3M where given, sum of movements, open field.
[8] abbreviates: Experiment 2, haloperidol i.p. 100 mg/kg, without L-arginine, nasal dopamine 10^−3M where given, sum of movements, open field.

Each structure is given as a SMILES string. Where two headings read alike, the source gives them in different places.

For the molecule `OO` [H2O2, hydrogen peroxide], the Spontaneous activity in test [1] (Experiment 1, haloperidol i.p., nasal H2O2 10^−4M (dopamine 10^−3M in the mixture)) was 1.8 ± 2.2 ^##); in test [1] (Experiment 1, haloperidol i.p., nasal H2O2 10^−5M), 3 ± 1.9 ^##). Besides, the “minimal effective concentration of the endonasal hydrogen peroxide” value in test [1] (setting [6]) is given as 10^−8 to 10^−10 M. Further, the “re-animation of spontaneous motor activity” value in test [2] is given as “did not re-animate the motor activity”.

Consider `N=C(N)NCCC[C@H](N)C(=O)O` [L-arginine], for which, in test [3], the “reanimation of spontaneous motor activity by L-arginine administered nasally together with dopamine” value was “able to reanimate spontaneous motor activity”. Besides, the Spontaneous activity in test [4] (Experiment 2, haloperidol i.p., nasal L-arginine 10^−3M (dopamine 10^−3M in the mixture)) is reported as 6.4 ± 3.4 ^##); in test [4] (Experiment 2, haloperidol i.p., nasal L-arginine 10^−5M) it was 4.8 ± 2.7 ^##). The “minimal effective concentration of the endonasal L-arginine” value in test [4] (setting [6]) is ~10^−7 M.

`NCCc1ccc(O)c(O)c1` [dopamine]: the Spontaneous activity in test [1] (setting [7]) is 2 ± 1.7 ^##); in test [4] (setting [8]), 2.6 ± 1.7 ^##). In addition, the “re-animation of spontaneous motor activity” value in test [2] is “did not re-animate the motor activity”.

For `O=C(CCCN1CCC(O)(c2ccc(Cl)cc2)CC1)c1ccc(F)cc1` [haloperidol], the Spontaneous activity in test [1] (setting [7]) was 3 ± 3 ^##); in test [4] (setting [8]), 3.7 ± 3 ^##). Also, in test [2] (single i.p. haloperidol 0.25 mg/kg, cataleptic response), the “reduction of spontaneous motor activity” value is recorded as 85%.

On to `CCC1(c2ccccc2)C(=O)NC(=O)NC1=O` [phenobarbital], for which the “Duration of the experimental sleep (Minutes following the last administration)” value in test [5] (single nasal application of the full dose 18 mg, 2 × 100 μL) was found to be 128 ± 11.1 min; in test [5] (triple nasal application of partial doses 3 × 6 (mg), interval 60 s), 161 ± 21.1 min.

The record behind these values is patent US20150328147A1, “METHOD FOR INTRODUCING BIOLOGICALLY ACTIVE SUBSTANCES INTO THE BRAIN” (BBU-VITA CORP., priority 2012, published 2015).
